From a melting point compilation (Tetko et al.; mined from patent text by program, amines drawn as free bases though some values may be those of a salt)

SMILES	melting point [°C]
Fc1ccc(-n2cc(OCCN3CCCCC3)c3cc(Cl)ccc32)cc1	82 to 84
COC(=O)c1ccc(Cc2cc3cc(Cl)ccc3[nH]2)cc1	118
N#CC1=C(C2CCCN2)Nc2n[nH]cc2C1c1cccc(C#N)c1Br (stereo not given)	> 240
CC12CCC(C1)C(C)(C)C2(S)CCN (stereo not given)	42 to 43
COc1ccc(N2CCN(Cc3ccc(Nc4ccnc5cc(C(F)(F)F)ccc45)cc3)CC2)cc1	235 to 237
CC(C)NC(=O)c1nc(-c2ccccc2)c(-c2ccc(=O)n(C)n2)s1	154
CC(C=O)(CCc1c[nH]c2ccccc12)NC(=O)OC1C2CC3CC(C2)CC1C3 (stereo not given)	178 to 179
NC1=C([N+](=O)[O-])C(=O)NC1=Cc1ccccc1	> 260
O=C(O)CCC=C(c1ccccc1)c1ccccc1	80 to 81.5
COC(=O)c1ccc2cc(-c3ccc(OC)cc3)oc2c1	163 to 164
O=C(O)CC(Cc1ccccc1[N+](=O)[O-])C(=O)O (stereo not given)	135 to 138
Cc1c(C)c2c(c(C)c1NC(=O)OC(C)(C)C)C(O)(c1ccc(C(C)C)cc1)C(C)(C)O2 (stereo not given)	155 to 157
CCOC(=O)c1ncc(C)nc1O	153
N#Cc1ccccc1Cn1ccc(OCc2ccc(F)cc2F)c(Br)c1=O	194 to 197
Cc1nnsc1C(=O)Nc1ccc(-n2nc(C3CC3)cc2C2CC2)cc1	117 to 120
COc1ccc2sc(C(N)=O)c(Cl)c2c1	220 to 222
O=C(O)c1cn(-c2ccc(F)cc2)c(-c2ccc(O)cc2)cc1=O	185 to 193
COc1ccc(-c2nc3cc(Cl)c(Cl)cc3n2C(=O)OCc2ccccc2)cc1NS(=O)(=O)c1cccs1	195 to 198
COc1ncc(Cl)cc1C(O)C=Cc1ccc(Cl)cc1 (stereo not given)	135 to 140
CCOc1c(Cl)cc(C(C)(C)N2CC(C)=C(c3ccccc3)C2=O)cc1Cl	133 to 135
Cn1c(C(F)(F)F)cc(=O)n(-c2cc(OC3COC(=O)O3)c(Cl)cc2F)c1=O (stereo not given)	165 to 167
CCOC(=O)c1c(SC)c(C#N)c(=O)n2ccccc12	128 to 129
CS(=O)(=O)c1ccc(-n2cc(-c3cccc(F)c3)nc2-c2ccc(Cl)cc2)cc1	194 to 196
CCc1noc(NS(=O)(=O)c2ccccc2)c1C	94 to 95

SMILES	melting point [°C]
O=S(=O)(c1ccccc1)N1CCC(Nc2nc(Cl)nc(N3CCCC3)n2)CC1	184 to 186
CC(=O)N1CCN(c2nccc(Oc3ccc(NC(=O)c4cc(F)cc(N5CCCCC5)c4)c4ccccc34)n2)CC1	102 to 104
O=C(NC1CCCCC1)NC1CCCc2sccc21 (stereo not given)	222 to 225
N=c1ncccn1CCc1ccccc1Br	97 to 98
Cc1nc(C(=O)Nc2cccc(Oc3ccc4nc(NC(=O)C5CC5)cn4n3)c2)c(C)o1	224
CC(NC(=S)Nc1ccc(Nc2ccccc2)nc1)C(C)(C)C (stereo not given)	168 to 170
COc1cccc(Cc2nc3c(cnn3C(CCCc3ccccc3)C(C)O)c(=O)[nH]2)c1 (stereo not given)	54
COC1CC(N2CCCC2)C(N(C)C(=O)COc2cccc(F)c2)CC1OC (stereo not given)	119 to 121
Cc1ccc(C)n1Nc1ccc(Cl)nn1	173 to 175
C#CCSc1nc(Cl)cc(NCc2ccc(Cl)cc2)n1	85 to 88
Cc1cc(NC(=O)NC(=O)c2c(Cl)cccc2Cl)ncc1-c1ccccc1	210 to 214
NCCc1cccc(Cn2ccc(OCc3ccc(F)cc3F)c(Br)c2=O)c1	70 to 74
O=C(NC1CC1)c1ccc(N2CCN(Cc3cnc4c(c3)[nH]c(=O)n3cccc43)CC2)cc1	270 to 272
COc1ccccc1C(=O)Nc1ccc(-n2nc(C(F)(F)F)cc2C(F)(F)F)cc1	100 to 102
CS(=O)(=O)c1ccc(-c2nc(=O)c3ccccc3s2)cn1	205 to 207
Cc1ccc(N)c(C)c1CO	85
COC(=O)CCCc1cc2cc(Cl)ccc2n1S(=O)(=O)c1ccc(N2CCOCC2)nc1	130 to 132
CC(=O)NCC1CN(c2ccc(N3CCN(c4nnc(C#N)s4)C(F)C3)cc2)C(=O)O1 (stereo not given)	200 to 202
COc1ccc(O)c(Cl)c1O	69 to 70
Nc1nc(NCCO)c(Cl)nc1[N+](=O)[O-]	196 to 197
OCc1cc(F)nc(F)c1	66 to 67
CNC(CC(C)C)c1nc(-c2ccc3c(c2)Nc2ccccc2S3)cs1 (stereo not given)	146 to 148
Nc1ccc(C(=O)c2cnc(NC3CCCCC3)s2)cc1[N+](=O)[O-]	245 to 250
COc1ccc(CN2C(=O)C(c3cc(C#N)c(O)cc3O)c3ccccc32)cc1 (stereo not given)	162 to 163

Next, values leading:

melting point [°C]	SMILES
68 to 70	CCOC(=O)CCc1cc(C(=O)c2cccc(C(=O)OCC)c2)ccc1O
159 to 160	COc1ccc(-c2ccc(C(=O)NCCOc3ccc(CC(Oc4ccc(C(C)C)cc4)C(=O)O)cc3)cc2)cc1 (stereo not given)
64 to 66	COc1ccc([N+](=O)[O-])c(C(C)=O)c1OC
68	C#Cc1ccc2c(c1)C(CCOCCOCCOC)(CCOCCOCCOC)c1cc(C#C)ccc1-2
118	COc1ccc2nc(C(=O)NCC(=O)O)c(OCc3ccccc3)cc2c1
113 to 114	COC(=O)C#CCOC(N)=O
83.5 to 85.5	COC(CCCNC(=O)CCCCCCCCC(=O)NCCCC(OC)OC)OC
126 to 136	COc1cc(C(=O)NS(=O)(=O)c2ccccc2Cl)ccc1Cc1c(Cl)n(C)c2ccc(CC(C)NC(=O)N(C)C)cc12 (stereo not given)
116 to 117	COCCOc1ccc(CCC(=O)O)c(Oc2ncc(C(F)(F)F)cc2Cl)c1
118 to 120	COC(=O)CCn1c(C(=O)O)cc2ccccc21
116 to 117	CC(C)C[C@H](NC(=O)COc1ccc(Cl)cc1)C(=O)N[C@@H](Cc1ccccc1)C(=O)CSCc1ccco1
133 to 136	COCOc1cc(Cl)ccc1-c1cc(-c2cccc(C(=O)NCC3CCCCN3C(=O)OC(C)(C)C)c2)c(C#N)c(NC(=O)c2ccco2)n1 (stereo not given)
130 to 131	CC(C)Cn1c(C(=O)O)c(OCCCC(F)(F)F)c2cc(OCc3ccccc3)ccc2c1=O
180 to 181	COc1ccc(-c2nc(/C=C/c3nccn3C)nc3cc(OC)c(OC)cc23)cc1OC
160 to 161	COC(=O)CCc1ccc(Sc2ccccc2C(=O)O)c([N+](=O)[O-])c1
148 to 150	COc1ccc2ccc(C(=O)CNC(=O)Cc3ccccc3)cc2c1
76 to 78	CCOC(=O)c1ccc(OC2CCN(C(=O)OC(C)(C)C)CC2)cc1
53 to 55	CCCc1c(OCCCCCc2c(Cl)ccc(OC)c2OC)ccc(C(=O)OC)c1O
42 to 43	COc1ccccc1C=CCCCCCC(=O)O
> 300	COc1ccc(-c2[nH]nc3c2C(=O)c2c(NC(=O)Cc4ccc(NC(=O)CN(C)C)cc4)cccc2-3)cc1
110 to 112	CC(C)C[C@@H](C=O)NC(=O)[C@H](Cc1c[nH]cn1)NC(=O)[C@H](Cc1ccc2ccccc2c1)NC(=O)OCc1ccccc1
107	C=CCOc1cc(-c2cc(=O)c3c(OCC=C)c(CC=C)c(OCC=C)cc3o2)ccc1OC
